Data set [1] has as its target T1, human GPR119 (Homo sapiens, UniProt Q8TDV5).
T1 construct: expressed in transfected cells; host or cells: HEK293 (transient transfection, Lipofectamine 2000)
T1 sequence (Q8TDV5 1-335): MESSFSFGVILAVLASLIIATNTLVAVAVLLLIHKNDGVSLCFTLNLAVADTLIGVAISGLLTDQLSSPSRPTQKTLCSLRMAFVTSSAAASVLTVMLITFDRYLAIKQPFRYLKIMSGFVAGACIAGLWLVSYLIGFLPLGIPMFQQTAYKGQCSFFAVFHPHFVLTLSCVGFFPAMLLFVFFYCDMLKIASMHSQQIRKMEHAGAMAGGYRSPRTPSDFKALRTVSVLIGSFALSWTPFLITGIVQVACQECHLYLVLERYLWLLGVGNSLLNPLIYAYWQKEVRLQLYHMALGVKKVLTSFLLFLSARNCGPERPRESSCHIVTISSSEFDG
Nature of the data set: In vitro cyclic AMP assay (Cisbio HTRF) in HEK293 cells transfected with human GPR119. The data set is classed as cell-based. The following applies: cAMP; for activation at 10 µM: 1 h, % Induction @ 10 μM; for EC50: Emax varies between 65 to 80%. A digest of the protocol: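 HEK293 cells transiently transfected with human GPR119 plasmid (or empty vector), replated 24 h later and exposed to compounds for 60 min at room temperature. cAMP measured by HTRF (cAMP-d2/cryptate, 665/620 nm ratio) after 1 h lysis; EC50 from concentration-response curves, also % induction at 10 μM.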

Data set [2] deals with HIT-T15 cells. Nature of the data set: In vitro HIT-T15 cyclic AMP assay. The data set is classed as cell-based. To be noted: cAMP. The method, then:
C. In Vitro HIT-T15 Cyclic AMP Assay:
(§1) cAMP measurements were done using a Cisbio dynamic 2 HTRF kit (Cisbio, Bedford, Mass.) according to the manufacturer's protocol. Briefly, HIT-T15 cells were harvested, counted and plated at 4000 cells/5 ul PBS-BSA solution in a black 384 welled small volume plate. Cells were treated with desired concentrations of compounds and incubated for 60 min at room temperature. Lysis buffer containing cAMP-d2 and cryptate conjugate were added and incubated for 1 h. HRTF ratio was measured on a microplate reader (BMG Labtech., Germany) at an excitation wavelength of 337 nm and emission wavelengths of 665 and 615 nm with an integration time of 400 μsec. Data were analyzed using Graphpad Prism (Graphpad software; San Diego Calif.) for EC50 determination.

For data set [3], the target named is T2, Mouse GPR119 (Mus musculus, UniProt Q7TQP3).
T2 construct: expressed in transfected cells
T2 sequence (Q7TQP3 1-335): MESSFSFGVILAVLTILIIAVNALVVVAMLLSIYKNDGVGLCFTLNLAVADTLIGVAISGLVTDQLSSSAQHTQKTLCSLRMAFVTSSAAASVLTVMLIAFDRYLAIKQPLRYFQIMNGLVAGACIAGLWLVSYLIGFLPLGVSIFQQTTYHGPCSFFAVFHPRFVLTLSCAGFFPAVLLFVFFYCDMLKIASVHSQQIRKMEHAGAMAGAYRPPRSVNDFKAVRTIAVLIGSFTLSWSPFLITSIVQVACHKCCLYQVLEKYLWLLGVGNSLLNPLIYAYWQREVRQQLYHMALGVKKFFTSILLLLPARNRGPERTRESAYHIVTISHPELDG
Nature of the data set: In vitro mouse GPR 119 cyclic AMP assay in stably transfected HEK293 cells. Type of data set: cell-based. To be noted: cAMP, HEK293 cells stably transfected with mouse GPR119. How it is done: B. In Vitro Mouse GPR 119 Cyclic AMP Assay:
as §1, with “HEK293 Cells were stably transfected with Mouse GPR119 expression plasmid DNA using Lipofectamine 2000 (Invitrogen) and maintained in culture. Cells” for “Briefly, HIT-T15 cells”, “1000” for “4000”, “ul” for “ul PBS-BSA solution”

Data set [4] relates to C57Bl/6J mice. The experiment in a line: Oral glucose tolerance test (OGTT) in C57Bl/6J mice. Type of data set: in vivo. To be noted: single oral dose 1 h before 2.0 g/kg oral glucose, sitagliptin 10 mg/kg, vs vehicle. The method, then:
FIG. 1 is a graph of blood glucose over time in C57BI/6J mice according to the oral glucose tolerance test (Biological Assay Procedure E) before and after oral administration of vehicle (control), compound A (Example 64@ 30 mg/kg), or sitagliptin (10 mg/kg @ 10 mg/kg).
FIG. 2 is a graph of blood glucose over time in C57BI/6J mice according to the oral glucose tolerance test (Biological Assay Procedure E) before and after oral administration of vehicle (control), compound […] (Example 42 @ 10 mg/kg), or sitagliptin (10 mg/kg @ 10 mg/kg).
E: Oral Glucose Tolerance Test (OGTT) in C57Bl/6J Mice:
After the quarantine period, 6 hr fasted animals were randomized and divided into various groups depending on their blood glucose levels. Test compounds or standard drug (sitagliptin) was prepared as a suspension in a vehicle consisting of 0.5% methylcellulose and Tween 80 as a suspending agent. The standard drug, Compound A (example-64), Compound B (example-42) or vehicle were administered by oral gavage in a volume of 10 mL/kg. 1 h after the test compounds, standard drug and vehicle administration, blood was sampled from the tail vein of mice at time 0 min (baseline) and at 30, 60, 90 and 120 min after an oral glucose load of 2.0 g/kg of body weight. Food, but not water, was withheld from the cages during the course of experiment. The area under curve (AUC) of experimental animals was compared with that of vehicle-treated control group. The results are shown in FIGS. 1 and 2 and are discussed below.

The mark [5] stands for this setting: FIG. 2 study, Compound B 10 mg/kg.
Where [6] appears, read: FIG. 1 study, Compound A 30 mg/kg.

Structures are written as SMILES. A value given as a limit tells only on which side of the number the result lay.

With `CC(C)(C)OC(=O)N1CCC(c2nc3cc(-c4ccc(-n5cnnn5)cc4F)ccc3o2)CC1` [EXAMPLE-12, Tert-butyl 4-{5-[2-fluoro-4-(1H-tetrazol-1-yl)phenyl]benzo[d]oxazol-2-yl}piperidine-1-carboxylate], the activation at 10 µM in data set [1] (Table I) stood at 83%. Besides, the EC50 is not above 25 nM in data set [1] (Table I), less than 25 nM in data set [2] and less than 25 nM in data set [3].
Turning to `CNC(=O)c1ccc(-c2ccc3oc(C4CCN(C(=O)OC(C)C)CC4)nc3c2)cc1F` [EXAMPLE-42, Isopropyl 4-{5-[3-fluoro-4-(methylcarbamoyl)phenyl]benzo[d]oxazol-2-yl}piperidine-1-carboxylate], the melting point was 116 to 120 °C. Further, the “lowered AUCglucose” value in data set [4] (setting [5]) is reported as 22%. In data set [1] (Table I), this molecule yielded an activation at 10 µM of 78.4% and an EC50 of 25 to 50 nM.
As for `CC(C)OC(=O)N1CCC(c2ccc3oc(-c4ccc(S(C)(=O)=O)cc4F)nc3c2)CC1` [EXAMPLE-64, Isopropyl 4-{2-[2-fluoro-4-(methylsulfonyl)phenyl]benzo[d]oxazol-5-yl}piperidine-1-carboxylate], the “lowered AUCglucose” value in data set [4] (setting [6]) is listed as 24%. Also, in data set [1] (Table II), the activation at 10 µM came out at 75% and the 50% effective concentration (EC50) is not above 25 nM.
The molecule `CC(C)(C)OC(=O)N1CCC(c2ccc3nc(-c4ccc(C(F)(F)F)cc4)oc3c2)CC1` [EXAMPLE-84, Tert-butyl 4-{2-[4-(trifluoromethyl)phenyl]benzo[d]oxazol-6-yl}piperidine-1-carboxylate] registered a melting point of 174 to 179 °C. The molecule also had an activation at 10 µM in data set [1] (Table II) of 13.2%.
As to `N[C@@H](CC(=O)N1CCn2c(nnc2C(F)(F)F)C1)Cc1cc(F)c(F)cc1F` [Sitagliptin, sitagliptin, reference compound], the “lowered AUCglucose” value in data set [4] (setting [6]) turned out to be 59%; in data set [4] (setting [5]), 50%.

A word on the EC50: it is the concentration giving half of the maximal effect. High values mean weaker potency, low ones greater potency. By melting point is commonly meant the temperature of the solid-liquid transition.

Source of the values: US9181214B2 (RHIZEN PHARMACEUTICALS SA, priority 2011, dated 2015).
